# According to patent US8735398B2 (Bristol-Myers Squibb Company, priority 2009, dated 2014):
# System: HCV 1b genotype
# Test: HCV replicon assay (HCV-neo replicon cells, wild-type)
# Assay type: cell-based, Hepatitis C virus
# Conditions: HCV 1b genotype replicon; class symbols; read-out: EC50 Range against HCV 1b
# Procedure, shortened: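 HCV-neo replicon cells (wild-type) and replicon cells carrying NS5A resistance substitutions were treated with compounds; assay per O'Boyle et al. 2005, with luciferase-reporter read-out variants also used.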
row,Structure (SMILES),EC50 [nM]
1,"CN(C)C(Cn1cncn1)C(=O)N1CCC[C@H]1C(=O)Nc1ccc(-c2cnc(-c3ccc(NC(=O)[C@@H]4CCCN4C(=O)C(Cn4cncn4)N(C)C)cc3)o2)cc1 (stereo partly drawn) [JR-12, (2S)-N,N′-(4,4′-(oxazole-2,5-diyl)bis(4,1-phenylene))bis(1-(2-(dimethylamino)-3-(1H-1,2,4-triazol-1-yl)propanoyl)pyrrolidine-2-carboxamide)]",100 to 999
2,"CN(C)[C@H](C(=O)N1CCC[C@H]1C(=O)Nc1ccc(-c2cnc(-c3ccc(NC(=O)[C@@H]4CCCN4C(=O)[C@H]([C@@H](O)c4ccsc4)N(C)C)cc3)o2)cc1)[C@@H](O)c1ccsc1 [JR-15, (S,S,2S)-N,N′-(4,4′-(oxazole-2,5-diyl)bis(4,1-phenylene))bis(1-((2S,3S)-2-(dimethylamino)-3-hydroxy-3-(thiophen-3-yl)propanoyl)pyrrolidine-2-carboxamide)]",4.57 to 99

# Same assay, conditions: Hepatitis C virus, HCV 1b genotype replicon; class symbol; read-out: EC50 Range against HCV 1b
row,Structure (SMILES),EC50 [nM]
1,"O=C(Nc1ccc(-c2cc(-c3ccc(NC(=O)[C@@H]4CCCN4C(=O)C4CCC4)cc3)[nH]n2)cc1)[C@@H]1CCCN1C(=O)C1CCC1 [OL-33, (2S,2′S)-N,N′-(1H-pyrazole-3,5-diyldi-4,1-phenylene)bis(1-(cyclobutylcarbonyl)-2-pyrrolidinecarboxamide)]",100 to 999
2,"CCc1ccccc1C(=O)N1CCC[C@H]1C(=O)Nc1ccc(-c2nnc(-c3ccc(NC(=O)[C@@H]4CCCN4C(=O)c4ccccc4CC)cc3)o2)cc1 [RK-9, (2S,2′S)-N,N′-(1,3,4-oxadiazole-2,5-diyldi-4,1-phenylene)bis(1-(2-ethylbenzoyl)-2-pyrrolidinecarboxamide)]",100 to 999
3,"O=C(Nc1ccc(-c2nnc(-c3ccc(NC(=O)[C@@H]4CCCN4C(=O)C4CC4)cc3)o2)cc1)[C@@H]1CCCN1C(=O)C1CC1 [Example D-58, (2S,2′S)-N,N′-(1,3,4-oxadiazole-2,5-diyldi-4,1-phenylene)bis[1-(cyclopropylcarbonyl)-2-pyrrolidinecarboxamide]]",1000 to 10000
4,"CC(C)[C@H](NC(=O)OCc1ccccc1)C(=O)Nc1ccc(-c2cnc(-c3ccc(NC(=O)[C@@H](NC(=O)OCc4ccccc4)C(C)C)cc3)o2)cc1 [JG-4, dibenzyl (1,3-oxazole-2,5-diylbis(4,1-phenyleneimino((2S)-3-methyl-1-oxo-1,2-butanediyl)))biscarbamate]",100 to 999
5,"CO[C@H]1C[C@@H](C(=O)Nc2ccc(-c3cnc(-c4ccc(NC(=O)[C@@H]5C[C@H](OC)CN5C(=O)C(NC(C)=O)c5ccccc5)cc4)o3)cc2)N(C(=O)C(NC(C)=O)c2ccccc2)C1 (stereo partly drawn) [OL-60, (2S,4S,2′S,4′S)-N,N′-(1,3-oxazole-2,5-diyldi-4,1-phenylene)bis(1-(acetamido(phenyl)acetyl)-4-methoxy-2-pyrrolidinecarboxamide)]",4.57 to 99
6,O=C(Nc1ccc(-c2nc[nH]c2-c2ccc(NC(=O)[C@@H]3C[C@@H](O)CN3C(=O)Cc3ccccc3)cc2)cc1)[C@@H]1C[C@@H](O)CN1C(=O)Cc1ccccc1 [OL-11],100 to 999
7,"O=C(Nc1ccc(-c2nc[nH]c2-c2ccc(NC(=O)[C@@H]3CCCN3C(=O)c3ccc4occc4c3)cc2)cc1)[C@@H]1CCCN1C(=O)c1ccc2occc2c1 [JG-52, (2S,2′S)-N,N′-(1H-imidazole-4,5-diyldi-4,1-phenylene)bis(1-(1-benzofuran-5-ylcarbonyl)-2-pyrrolidinecarboxamide)]",100 to 999
8,"O=C(Nc1ccc(-c2cnc(-c3ccc(NC(=O)[C@@H]4CCCN4C(=O)[C@H]4CCCN4)cc3)o2)cc1)[C@@H]1CCCN1C(=O)[C@H]1CCCN1 [Example D-35, (2S,2′S)-N,N′-(1,3-oxazole-2,5-diyldi-4,1-phenylene)bis(1-((2R)-2-pyrrolidinylcarbonyl)-2-pyrrolidinecarboxamide)]",1000 to 10000
9,"O=C(Nc1ccc(-c2n[nH]nc2-c2ccc(NC(=O)[C@@H]3CCCN3C(=O)Cc3ccccc3)cc2)cc1)[C@@H]1CCCN1C(=O)Cc1ccccc1 [OL-20, (2S,2′S)-N,N′-(1H-1,2,3-triazole-4,5-diyldi-4,1-phenylene)bis[1-(phenylacetyl)-2-pyrrolidinecarboxamide]]",4.57 to 99
10,"C[C@H](NC(=O)OCc1ccccc1)C(=O)Nc1ccc(-c2nc[nH]c2-c2ccc(NC(=O)[C@H](C)NC(=O)OCc3ccccc3)cc2)cc1 [OL-8, [1H-imidazole-4,5-diylbis[4,1-phenyleneimino[(1S)-1-methyl-2-oxo-2,1-ethanediyl]]]bis-carbamic acid, bis(phenylmethyl) ester]",4.57 to 99
11,"CC(=O)N1CC=C[C@H]1C(=O)Nc1ccc(-c2cc(-c3ccc(NC(=O)[C@@H]4C=CCN4C(C)=O)cc3)[nH]n2)cc1 [OL-30, (2S,2′S)-N,N′-(1H-pyrazole-3,5-diyldi-4,1-phenylene)bis(1-acetyl-2,5-dihydro-1H-pyrrole-2-carboxamide)]",1000 to 10000
12,"O=C(Nc1ccc(-c2cc(-c3ccc(NC(=O)[C@@H]4CCCN4C(=O)c4ccncc4)cc3)[nH]n2)cc1)[C@@H]1CCCN1C(=O)c1ccncc1 [OL-34, (2S,2′S)-N,N′-(1H-pyrazole-3,5-diyldi-4,1-phenylene)bis(1-isonicotinoyl-2-pyrrolidinecarboxamide)]",1000 to 10000

# Same assay, conditions: Hepatitis C virus, HCV 1b genotype replicon; class symbols; read-out: EC50 Range against HCV 1b
row,Structure (SMILES),EC50 [nM]
1,"CC(C(=O)N1CCC[C@H]1C(=O)Nc1ccc(-c2cnc(-c3ccc(NC(=O)[C@@H]4CCCN4C(=O)C(C)N4C(=O)C5C6CCC(C6)C5C4=O)cc3)o2)cc1)N1C(=O)C2C3CCC(C3)C2C1=O (stereo partly drawn) [JR-18, (2S,2′S)-N,N′-(2,5-oxazolediyldi-4,1-phenylene)bis[1-[2-(octahydro-1,3-dioxo-4,7-methano-2H-isoindol-2-yl)-1-oxopropyl]-2-pyrrolidinecarboxamide]]",1000 to 10000
2,"Cn1ccnc1C(=O)N1CCC[C@H]1C(=O)Nc1ccc(-c2cnc(-c3ccc(NC(=O)[C@@H]4CCCN4C(=O)c4nccn4C)cc3)o2)cc1 [XY-21, (2S,2′S)-N,N′-(1,3-oxazole-2,5-diyldi-4,1-phenylene)bis(1-((1-methyl-1H-imidazol-2-yl)carbonyl)-2-pyrrolidinecarboxamide)]",1000 to 10000
3,"COc1cc(C(=O)N[C@@H](C)C(=O)Nc2ccc(-c3nnc(-c4ccc(NC(=O)[C@H](C)NC(=O)c5cc(Cl)nc(OC)c5)cc4)o3)cc2)cc(Cl)n1 [RK-41, N,N′-(1,3,4-oxadiazole-2,5-diylbis(4,1-phenyleneimino((2S)-1-oxo-1,2-propanediyl)))bis(2-chloro-6-methoxyisonicotinamide)]",1000 to 10000
4,"CC(Oc1cccc(Cl)c1)C(=O)N1CCC[C@H]1C(=O)Nc1ccc(-c2cnc(-c3ccc(NC(=O)[C@@H]4CCCN4C(=O)C(C)Oc4cccc(Cl)c4)cc3)o2)cc1 (stereo partly drawn) [XY-12, (2S,2′S)-N,N′-(1,3-oxazole-2,5-diyldi-4,1-phenylene)bis(1-(2-(3-chlorophenoxy)propanoyl)-2-pyrrolidinecarboxamide)]",100 to 999
5,"CC(C)(C)O[C@@H]1C[C@@H](C(=O)Nc2ccc(-c3cnc(-c4ccc(NC(=O)[C@@H]5C[C@@H](OC(C)(C)C)CN5C(=O)c5ccccc5)cc4)o3)cc2)N(C(=O)c2ccccc2)C1 [XY-73, (2S,4R,2′S,4′R)-N,N′-(1,3-oxazole-2,5-diyldi-4,1-phenylene)bis(1-benzoyl-4-tert-butoxy-2-pyrrolidinecarboxamide)]",1000 to 10000
6,"C[C@H](NC(=O)c1nc(Cl)cc2ccccc12)C(=O)Nc1ccc(-c2nnc(-c3ccc(NC(=O)[C@H](C)NC(=O)c4nc(Cl)cc5ccccc45)cc3)o2)cc1 [RK-36, N,N′-(1,3,4-oxadiazole-2,5-diylbis(4,1-phenyleneimino((2S)-1-oxo-1,2-propanediyl)))bis(3-chloro-1-isoquinolinecarboxamide)]",1000 to 10000

# Same assay, conditions: Hepatitis C virus, HCV 1b genotype replicon; read-out: EC50 1b
row,Structure (SMILES),EC50 [nM]
1,"O=C(Nc1ccc(-c2nnc(-c3ccc(NC(=O)[C@@H]4CCCN4C(=O)C4CC4)cc3)o2)cc1)[C@@H]1CCCN1C(=O)C1CC1 [Example D-58, (2S,2′S)-N,N′-(1,3,4-oxadiazole-2,5-diyldi-4,1-phenylene)bis[1-(cyclopropylcarbonyl)-2-pyrrolidinecarboxamide]]",2210
2,"O=C(Nc1ccc(-c2cnc(-c3ccc(NC(=O)[C@@H]4CCCN4C(=O)[C@H]4CCCN4)cc3)o2)cc1)[C@@H]1CCCN1C(=O)[C@H]1CCCN1 [Example D-35, (2S,2′S)-N,N′-(1,3-oxazole-2,5-diyldi-4,1-phenylene)bis(1-((2R)-2-pyrrolidinylcarbonyl)-2-pyrrolidinecarboxamide)]",5240
3,"CC(Oc1cccc(Cl)c1)C(=O)N1CCC[C@H]1C(=O)Nc1ccc(-c2cnc(-c3ccc(NC(=O)[C@@H]4CCCN4C(=O)C(C)Oc4cccc(Cl)c4)cc3)o2)cc1 (stereo partly drawn) [XY-12, (2S,2′S)-N,N′-(1,3-oxazole-2,5-diyldi-4,1-phenylene)bis(1-(2-(3-chlorophenoxy)propanoyl)-2-pyrrolidinecarboxamide)]",220
4,"C[C@H](NC(=O)c1nc(Cl)cc2ccccc12)C(=O)Nc1ccc(-c2nnc(-c3ccc(NC(=O)[C@H](C)NC(=O)c4nc(Cl)cc5ccccc45)cc3)o2)cc1 [RK-36, N,N′-(1,3,4-oxadiazole-2,5-diylbis(4,1-phenyleneimino((2S)-1-oxo-1,2-propanediyl)))bis(3-chloro-1-isoquinolinecarboxamide)]",1000
